This passage reports Activity, MIC and IC50 results from ChEMBL document CHEMBL3045925 (Med Chem Res, 2013).

Molecules are shown by their SMILES. ≈ marks a conversion by molar mass, not a printed value. Calls of active or inactive are those of the source.

The test system of assay [1] is Radical scavenging activity. In words: Antioxidant activity assessed as DPPH free radical scavenging activity at 1000 ug/mL after 30 min by spectrophotometric analysis. The format is functional.
Assay [2] is described as follows: Antioxidant activity assessed as reduction of Fe3+ to Fe2+ measured Fe2+ equivalent per gram dry mass after 4 min by spectrophotometric analysis. The format is functional.
The subject of assay [3] is Radical scavenging activity. The experiment in a line: Antioxidant activity assessed as DPPH free radical scavenging activity at 125 ug/mL after 30 min by spectrophotometric analysis. It is filed as functional. On the technique in general: The DPPH test is a chemical assay of radical scavenging.
The test system of assay [4] is Radical scavenging activity. In words: Antioxidant activity assessed as DPPH free radical scavenging activity at 500 ug/mL after 30 min by spectrophotometric analysis. The format is functional.
The nature of assay [5]: Antioxidant activity assessed as reduction of Cu2+ to Cu+ at 125 to 1000 ug/mL after 30 min by spectrophotometric analysis. It is filed as functional.
Assay [6] has as its system Radical scavenging activity. The experiment in a line: Antioxidant activity assessed as DPPH free radical scavenging activity at 250 ug/mL after 30 min by spectrophotometric analysis. The format is functional.
For the next assay, the system named is Malassezia pachydermatis. In words: Antifungal activity against Malassezia pachydermatis assessed as growth inhibition after 48 to 72 hr by two-fold serial dilution method. It is filed as functional.
The subject of another assay is Candida albicans. In words: Antifungal activity against Candida albicans MTCC 227 assessed as growth inhibition after 48 to 72 hr by two-fold serial dilution method. The format is functional.
The subject of the next assay is Trichophyton rubrum. The experiment in a line: Antifungal activity against Trichophyton rubrum 57/01 assessed as growth inhibition after 48 to 72 hr by two-fold serial dilution method. The format is functional.
A further assay relates to Scopulariopsis. The experiment in a line: Antifungal activity against Scopulariopsis sp. 101/01 assessed as growth inhibition after 48 to 72 hr by two-fold serial dilution method. It is filed as functional.
Another assay relates to Aspergillus flavus. The experiment in a line: Antifungal activity against Aspergillus flavus assessed as growth inhibition after 48 to 72 hr by two-fold serial dilution method. It is filed as functional.
The test system of the next assay is Botrytis cinerea. The experiment in a line: Antifungal activity against Botryotinia fuckeliana assessed as growth inhibition after 48 to 72 hr by two-fold serial dilution method. It is filed as functional.
Assay [7] deals with Trichophyton mentagrophytes. In words: Antifungal activity against Trichophyton mentagrophytes 66/01 assessed as growth inhibition after 48 to 72 hr by two-fold serial dilution method. The format is functional.
Assay [8] has as its system Salmonella enterica subsp. enterica serovar Paratyphi B. In words: Antibacterial activity against Salmonella enterica subsp. enterica serovar Paratyphi B assessed as growth inhibition after 24 hr by two-fold serial dilution method. The format is functional.
A further assay relates to Micrococcus luteus. In words: Antibacterial activity against Micrococcus luteus assessed as growth inhibition after 24 hr by two-fold serial dilution method. The format is functional.
For assay [9], the system named is COLO 320. In words: Cytotoxicity against Homo sapiens (human) COLO320 cells at 10 ug/mL by MTT assay. The format is functional.
Assay [10] is described as follows: Antioxidant activity assessed as reduction of Cu2+ to Cu+ after 30 min by spectrophotometric analysis. The format is functional.
For the next assay, the system named is Shigella flexneri. In words: Antibacterial activity against Shigella flexneri MTCC 1457 assessed as growth inhibition after 24 hr by two-fold serial dilution method. It is filed as functional. The following applies: MTCC 1457, 24 h.
In assay [11] the test system is Klebsiella pneumoniae. The experiment in a line: Antibacterial activity against Klebsiella pneumoniae ESBL 3967 clinical isolate assessed as growth inhibition after 24 hr by two-fold serial dilution method. The format is functional. Conditions: ESBL 3967, 24 h.
Assay [12] concerns COLO 320. The experiment in a line: Cytotoxicity against Homo sapiens (human) COLO320 cells at 50 ug/mL by MTT assay. The format is functional.
Assay [13] deals with COLO 320. The experiment in a line: Cytotoxicity against Homo sapiens (human) COLO320 cells at 25 ug/mL by MTT assay. The format is functional.
Assay [14] has as its system Staphylococcus aureus. The experiment in a line: Antibacterial activity against methicillin-resistant Staphylococcus aureus clinical isolate assessed as growth inhibition after 24 hr by two-fold serial dilution method. It is filed as functional.
Assay [15] concerns COLO 320. In words: Cytotoxicity against Homo sapiens (human) COLO320 cells at 200 ug/mL by MTT assay. It is filed as functional.
The test system of assay [16] is COLO 320. In words: Cytotoxicity against Homo sapiens (human) COLO320 cells at 100 ug/mL by MTT assay. It is filed as functional. (In general: Tetrazolium assays rely on reduction of a dye to a coloured formazan, in cell work by metabolically active cells.)
Assay [17] deals with Escherichia coli. In words: Antibacterial activity against Escherichia coli ESBL 3904 clinical isolate assessed as growth inhibition after 24 hr by two-fold serial dilution method. It is filed as functional. The following applies: ESBL 3904, 24 h.
Assay [18] has as its system COLO 320. The experiment in a line: Cytotoxicity against Homo sapiens (human) COLO320 cells by MTT assay.
The subject of assay [19] is Escherichia coli. The experiment in a line: Antibacterial activity against Escherichia coli ESBL 3984 clinical isolate assessed as growth inhibition after 24 hr by two-fold serial dilution method. Conditions: ESBL 3984, 24 h. The format is functional.
For assay [20], the system named is Klebsiella pneumoniae. The experiment in a line: Antibacterial activity against Klebsiella pneumoniae ESBL 75799 clinical isolate assessed as growth inhibition after 24 hr by two-fold serial dilution method. The format is functional. Conditions: ESBL 75799, 24 h.
The test system of the next assay is Bacillus subtilis. In words: Antibacterial activity against Bacillus subtilis MTCC 441 assessed as growth inhibition after 24 hr by two-fold serial dilution method. Conditions: MTCC 441, 24 h. The format is functional.
Another assay deals with Salmonella typhimurium. The experiment in a line: Antibacterial activity against Salmonella enterica subsp. enterica serovar Typhimurium MTCC 1251 assessed as growth inhibition after 24 hr by two-fold serial dilution method. The format is functional. Conditions: MTCC 1251, 24 h.
Assay [21] concerns Staphylococcus epidermidis. The experiment in a line: Antibacterial activity against Staphylococcus epidermidis MTCC 3615 assessed as growth inhibition after 24 hr by two-fold serial dilution method. It is filed as functional. Conditions: MTCC 3615, 24 h.
Assay [22] concerns Klebsiella pneumoniae. In words: Antibacterial activity against Klebsiella pneumoniae ESBL 3894 clinical isolate assessed as growth inhibition after 24 hr by two-fold serial dilution method. The format is functional. The following applies: ESBL 3894, 24 h.
Assay [23] concerns Staphylococcus aureus. The experiment in a line: Antibacterial activity against Staphylococcus aureus MTCC 96 assessed as growth inhibition after 24 hr by two-fold serial dilution method. It is filed as functional. The following applies: MTCC 96, 24 h.
In assay [24] the test system is Klebsiella pneumoniae. The experiment in a line: Antibacterial activity against Klebsiella pneumoniae ESBL 3971 clinical isolate assessed as growth inhibition after 24 hr by two-fold serial dilution method. The following applies: ESBL 3971, 24 h. It is filed as functional.
The test system of a further assay is Pseudomonas aeruginosa. In words: Antibacterial activity against Pseudomonas aeruginosa MTCC 741 assessed as growth inhibition after 24 hr by two-fold serial dilution method. The following applies: MTCC 741, 24 h. It is filed as functional.

For the compound `Cc1cc(C(C)(C)C)c(O)c(C(C)(C)C)c1`, the Activity was 90.1% in assay [1]; 2.21 mMequiv in [2]; 60.9% in assay [3]; 80.9% in assay [4]; 71.7% in assay [6]. In assay [5], the outcome was Active.
For orientation: MIC means the smallest concentration in the dilution series that meets the test's criterion for growth inhibition. As to `CC(=O)N1CCN(c2ccc(OCC3COC(Cn4ccnc4)(c4ccc(Cl)cc4Cl)O3)cc2)CC1` (configuration not stated) [KETOCONAZOLE], the MIC is 12.5 µg/mL (≈ 23.5 µM) with Malassezia pachydermatis; 25 µg/mL (≈ 47 µM) in the assay on Candida albicans; < 12.5 µg/mL in the assay with Trichophyton rubrum; < 12.5 µg/mL with Scopulariopsis; < 12.5 µg/mL with Aspergillus flavus; < 12.5 µg/mL in the assay on Botrytis cinerea. In [7], the MIC was < 12.5 µg/mL.
The IC50 is the midpoint of a concentration-inhibition curve. Higher therefore signals weaker potency. As to `COc1cc(/C=C/C(=O)NCCCCNC(=O)/C=C/c2ccc(O)c(OC)c2)ccc1O` [TERRESTRIBISAMIDE], the MIC in [8] is > 200 µg/mL; with Micrococcus luteus it was 200 µg/mL (≈ 454 µM); with Malassezia pachydermatis it was 200 µg/mL (≈ 454 µM); with Shigella flexneri, > 200 µg/mL; in the assay on Klebsiella pneumoniae [11], > 200 µg/mL; in the assay with Candida albicans, 200 µg/mL (≈ 454 µM). The MIC in the assay with Staphylococcus aureus [14] is > 200 µg/mL; in the assay with Escherichia coli [17], 200 µg/mL (≈ 454 µM); in the assay with Escherichia coli [19], 200 µg/mL (≈ 454 µM); in the assay on Klebsiella pneumoniae [20], > 200 µg/mL; in the assay on Bacillus subtilis it was 200 µg/mL (≈ 454 µM); with Salmonella typhimurium, > 200 µg/mL. Besides, the MIC with Trichophyton rubrum is > 200 µg/mL; in the assay on Scopulariopsis it was > 200 µg/mL; in assay [21], 200 µg/mL (≈ 454 µM); with Aspergillus flavus, > 200 µg/mL; with Klebsiella pneumoniae [22], > 200 µg/mL; in the assay with Staphylococcus aureus [23], > 200 µg/mL. Also, the MIC (in the assay with Klebsiella pneumoniae [24]; in the assay with Botrytis cinerea; in the assay on Pseudomonas aeruginosa; in [7]) was > 200 µg/mL throughout. Besides, the Activity was 9.655% with COLO 320 [9]; 88.3% in assay [1]; “Dose-dependent effect” in assay [10]; 51.195% with COLO 320 [12]; 0.808 mMequiv in assay [2]; 21.609% in the assay with COLO 320 [13]. In addition, the Activity was determined as 40.2% in assay [3]; 84.6% in [4]; 83.218% with COLO 320 [15]; 64.827% with COLO 320 [16]; 68.3% in [6]. In the assay on COLO 320 [18], this compound came in with an IC50 of 50 µg/mL (≈ 114 µM).
In the case of `CN[C@@H]1[C@H](O[C@H]2[C@H](O[C@H]3[C@H](O)[C@@H](O)[C@H](N=C(N)N)[C@@H](O)[C@@H]3N=C(N)N)O[C@@H](C)[C@]2(O)C=O)O[C@@H](CO)[C@H](O)[C@H]1O` [STREPTOMYCIN], the MIC result in [8] is “inactive”. In addition, the MIC was 6.25 µg/mL (≈ 10.7 µM) with Micrococcus luteus; 6.25 µg/mL (≈ 10.7 µM) with Shigella flexneri; 25 µg/mL (≈ 43 µM) in the assay with Klebsiella pneumoniae [11]; 6.25 µg/mL (≈ 10.7 µM) in the assay on Staphylococcus aureus [14]; 25 µg/mL (≈ 43 µM) in the assay on Escherichia coli [17]; 25 µg/mL (≈ 43 µM) with Escherichia coli [19]. Also, the MIC in the assay with Klebsiella pneumoniae [20] amounted to 25 µg/mL (≈ 43 µM); with Bacillus subtilis, 25 µg/mL (≈ 43 µM); in the assay with Salmonella typhimurium it was 30 µg/mL (≈ 51.6 µM); in assay [21] it was 25 µg/mL (≈ 43 µM); with Klebsiella pneumoniae [22], 6.25 µg/mL (≈ 10.7 µM); with Staphylococcus aureus [23], 6.25 µg/mL (≈ 10.7 µM). The values for the MIC in the assay on Klebsiella pneumoniae [24] and in the assay on Pseudomonas aeruginosa were 6.25 µg/mL (≈ 10.7 µM) and 25 µg/mL (≈ 43 µM), respectively.
